Experimental data: patent US8551999B2, “Heterocyclic compound and pharmaceutical composition thereof” (Otsuka Pharmaceutical Co., Ltd., priority 2007, dated 2013)

melting point [°C]	SMILES
241 to 243	Br.CCOc1ccc(CN2CCN(C(=O)c3cc4ccc(Oc5ccc(N(C)C(=O)c6ccc(C(F)(F)F)cc6)cn5)cc4n3C)CC2)cc1 [Example 419, N-(6-{2-[4-(4-Ethoxybenzyl)piperazine-1-carbonyl]-1-methyl-1H-indol-6-yloxy}pyridin-3-yl)-N-methyl-4-trifluoromethylbenzamide hydrobromide]
229 to 230	Br.CN(C(=O)c1ccc(C(F)(F)F)cc1)c1ccc(Oc2ccc3cc(C(=O)N4CCN(Cc5ccc(OC(F)F)cc5)CC4)n(C)c3c2)nc1 [Example 422, N-(6-{2-[4-(4-Difluoromethoxybenzyl)piperazine-1-carbonyl]-1-methyl-1H-indol-6-yloxy}pyridin-3-yl)-N-methyl-4-trifluoromethyl-benzamide hydrobromide]
149 to 151	CCOc1ccc(CN2CCN(C(=O)c3cc4cc(Oc5ccc(N(C)C(=O)c6ccc(C(F)(F)F)cc6)cn5)ccc4n3C)CC2)cn1.O=C(O)/C=C\C(=O)O [Example 423, N-(6-{2-[4-(6-Ethoxypyridin-3-ylmethyl)piperazine-1-carbonyl]-1-methyl-1H-indol-5-yloxy}pyridin-3-yl)-N-methyl-4-trifluoromethyl-benzamide maleate]
249 to 252	Br.Cc1c(Oc2ccc(N(C)C(=O)c3ccc(C(F)(F)F)cc3)cn2)ccc2c1cc(C(=O)N1CCN(Cc3ccc(C#N)cc3)CC1)n2C [Example 425, N-(6-{2-[4-(4-Cyanobenzyl)piperazine-1-carbonyl]-1,4-dimethyl-1H-indol-5-yloxy}pyridin-3-yl)-N-methyl-4-trifluoromethylbenzamide hydrobromide]
184 to 186	COc1ccc(CN2CCN(C(=O)c3cc4c(C)c(Oc5ccc(N(C)C(=O)c6ccc(C(F)(F)F)cc6)cn5)ccc4n3C)CC2)cc1 [Example 426, N-(6-{2-[4-(4-Methoxybenzyl)piperazine-1-carbonyl]-1,4-dimethyl-1H-indol-5-yloxy}pyridin-3-yl)-N-methyl-4-trifluoromethyl-benzamide]
224 to 226	Br.CCOc1ccc(CN2CCN(C(=O)c3cc4c(C)c(Oc5ccc(N(C)C(=O)c6ccc(C(F)(F)F)cc6)cn5)ccc4n3C)CC2)cc1 [Example 427, N-(6-{2-[4-(4-Ethoxybenzyl)piperazine-1-carbonyl]-1,4-dimethyl-1H-indol-5-yloxy}pyridin-3-yl)-N-methyl-4-trifluoromethyl-benzamide hydrobromide]
255 to 258	Br.CC(C)c1ccc(CN2CCN(C(=O)c3cc4ccc(Oc5ccc(N(C)C(=O)c6ccc(C(F)(F)F)cc6)cn5)cc4n3C)CC2)cc1 [Example 429, N-(6-{2-[4-(4-Isopropylbenzyl)piperazine-1-carbonyl]-1-methyl-1H-indol-6-yloxy}pyridin-3-yl)-N-methyl-4-trifluoromethylbenzamide hydrobromide]
262 to 265	Br.CC(C)Cc1ccc(CN2CCN(C(=O)c3cc4ccc(Oc5ccc(N(C)C(=O)c6ccc(C(F)(F)F)cc6)cn5)cc4n3C)CC2)cc1 [Example 430, N-(6-{2-[4-(4-Isobutylbenzyl)piperazine-1-carbonyl]-1-methyl-1H-indol-6-yloxy}pyridin-3-yl)-N-methyl-4-trifluoromethylbenzamide hydrobromide]
255 to 257	Br.CCCc1ccc(CN2CCN(C(=O)c3cc4ccc(Oc5ccc(N(C)C(=O)c6ccc(C(F)(F)F)cc6)cn5)cc4n3C)CC2)cc1 [Example 431, N-Methyl-N-(6-{1-methyl-2-[4-(4-propylbenzyl)piperazine-1-carbonyl]-1H-indol-6-yloxy}pyridin-3-yl)-4-trifluoromethyl-benzamide hydrobromide]
211 to 212	Br.Br.CN(C(=O)c1ccc(C(F)(F)F)cc1)c1ccc(Oc2ccc3c(c2)cc(C(=O)N2CCN(Cc4ccc(OCC(F)(F)F)cc4)CC2)n3C)nc1 [Example 432, N-Methyl-N-[6-(1-methyl-2-{4-[4-(2,2,2-trifluoroethoxy)benzyl]-piperazine-1-carbonyl}-1H-indol-5-yloxy)pyridin-3-yl]-4-tri-fluoromethylbenzamide dihydrobromide]
144 to 147	COc1ccc(CN2CCN(C(=O)c3cc4cc(Oc5cc(C)c(NC(=O)c6ccc(C(F)(F)F)cc6)cn5)ccc4n3C)CC2)cc1.O=C(O)C(=O)O [Example 433, N-(6-{2-[4-(4-Methoxybenzyl)piperazine-1-carbonyl]-1-methyl-1H-indol-5-yloxy}-4-methylpyridin-3-yl)-4-trifluoromethylbenzamide oxalate]
204 to 208	Br.CCCOc1ccc(CN2CCN(C(=O)c3cc4c(C)c(Oc5ccc(N(C)C(=O)c6ccc(C(F)(F)F)cc6)cn5)ccc4n3C)CC2)cc1 [Example 434, N-(6-{1,4-Dimethyl-2-[4-(4-propoxybenzyl)piperazine-1-carbonyl]-1H-indol-5-yloxy}pyridin-3-yl)-N-methyl-4-trifluoromethyl-benzamide hydrobromide]
215.3 to 216.6	Br.CN(C(=O)c1ccc(C(F)(F)F)cc1)c1ccc(Oc2ccc3cc(C(=O)N4CCN(Cc5ccc(OCCF)cc5)CC4)n(C)c3c2)nc1 [Example 438, N-[6-(2-{4-[4-(2-Fluoroethoxy)benzyl]piperazine-1-carbonyl}-1-methyl-1H-indol-6-yloxy)pyridin-3-yl]-N-methyl-4-trifluoromethyl-benzamide hydrobromide]
155.7 to 156.9	CN(C(=O)c1ccc(C(F)(F)F)cc1)c1ccc(Oc2ccc3c(c2)cc(C(=O)N2CCN(Cc4ccc5c(c4)OC(F)(F)O5)CC2)n3C)nc1.O=C(O)C(=O)O [Example 439, N-(6-{2-[4-(2,2-Difluorobenzo[1,3]dioxol-5-ylmethyl)piperazine-1-carbonyl]-1-methyl-1H-indol-5-yloxy}pyridin-3-yl)-N-methyl-4-tri-fluoromethylbenzamide oxalate]
243.3 to 245.1	Br.CN(C(=O)c1ccc(C(F)(F)F)cc1)c1ccc(Oc2ccc3cc(C(=O)N4CCN(Cc5ccc6c(c5)OC(F)(F)O6)CC4)n(C)c3c2)nc1 [Example 440, N-(6-{2-[4-(2,2-Difluorobenzo[1,3]dioxol-5-ylmethyl)piperazine-1-carbonyl]-1-methyl-1H-indol-6-yloxy}pyridin-3-yl)-N-methyl-4-tri-fluoromethylbenzamide hydrobromide]
97.9 to 99.5	Cc1c(Oc2ccc(N(C)C(=O)c3ccc(C(F)(F)F)cc3)cn2)ccc2c1cc(C(=O)N1CCN(Cc3ccc4c(c3)OC(F)(F)O4)CC1)n2C [Example 441, N-(6-{2-[4-(2,2-Difluorobenzo[1,3]dioxol-5-ylmethyl)piperazine-1-carbonyl]-1,4-dimethyl-1H-indol-5-yloxy}pyridin-3-yl)-N-methyl-4-trifluoromethylbenzamide]
245.4 to 247.6	Br.CN(C(=O)c1ccc(C(F)(F)F)cc1)c1ccc(Oc2ccc3cc(C(=O)N4CCN(Cc5ccc(OC(F)(F)C(F)F)cc5)CC4)n(C)c3c2)nc1 [Example 443, N-Methyl-N-[6-(1-methyl-2-{4-[4-(1,1,2,2-tetrafluoroethoxy)-benzyl]piperazine-1-carbonyl}-1H-indol-6-yloxy)pyridin-3-yl]-4-trifluoromethylbenzamide hydrobromide]
156.8 to 157.4	CC(C)Oc1ccc(CN2CCN(C(=O)c3cc4ccc(Oc5ccc(N(C)C(=O)c6ccc(C(F)(F)F)cc6)cn5)cc4n3C)CC2)cn1.O=C(O)/C=C\C(=O)O [Example 444, N-(6-{2-[4-(6-Isopropoxypyridin-3-ylmethyl)piperazine-1-carbonyl]-1-methyl-1H-indol-6-yloxy}pyridin-3-yl)-N-methyl-4-tri-fluoromethylbenzamide maleate]
237 to 239	Br.CN(C(=O)c1ccc(C(F)(F)F)cc1)c1ccc(Oc2ccc3cc(C(=O)N4CCN(Cc5ccc(OC(F)(F)F)cc5)CC4)n(C)c3c2)nc1 [Example 446, N-Methyl-N-(6-{1-methyl-2-[4-(4-trifluoromethoxybenzyl)-piperazine-1-carbonyl]-1H-indol-6-yloxy}pyridin-3-yl)-4-tri-fluoromethylbenzamide hydrobromide]
223.6 to 225.4	Br.CN(C(=O)c1ccc(C(F)(F)F)cc1Cl)c1ccc(Oc2ccc3cc(C(=O)N4CCN(Cc5ccc(OCCF)cc5)CC4)n(C)c3c2)nc1 [Example 447, 2-Chloro-N-[6-(2-{4-[4-(2-fluoroethoxy)benzyl]piperazine-1-carbonyl}-1-methyl-1H-indol-6-yloxy)pyridin-3-yl]-N-methyl-4-tri-fluoromethylbenzamide hydrobromide]
232.4 to 232.8	Br.CN(C(=O)c1ccc(C(F)(F)F)cc1Cl)c1ccc(Oc2ccc3cc(C(=O)N4CCN(Cc5ccc(OCC(F)F)cc5)CC4)n(C)c3c2)nc1 [Example 448, 2-Chloro-N-[6-(2-{4-[4-(2,2-difluoroethoxy)benzyl]piperazine-1-carbonyl}-1-methyl-1H-indol-6-yloxy)pyridin-3-yl]-N-methyl-4-tri-fluoromethylbenzamide hydrobromide]
239.5 to 240.6	Br.CN(C(=O)c1ccc(C(F)(F)F)cc1Cl)c1ccc(Oc2ccc3cc(C(=O)N4CCN(Cc5ccc(OCC(F)(F)F)cc5)CC4)n(C)c3c2)nc1 [Example 449, 2-Chloro-N-methyl-N-[6-(1-methyl-2-{4-[4-(2,2,2-trifluoroethoxy)-benzyl]piperazine-1-carbonyl}-1H-indol-6-yloxy)pyridin-3-yl]-4-trifluoromethylbenzamide hydrobromide]
238.6 to 240.1	Br.CCCOc1ccc(CN2CCN(C(=O)c3cc4ccc(Oc5ccc(N(C)C(=O)c6ccc(C(F)(F)F)cc6Cl)cn5)cc4n3C)CC2)cc1 [Example 450, 2-Chloro-N-methyl-N-(6-{1-methyl-2-[4-(4-propoxybenzyl)-piperazine-1-carbonyl]-1H-indol-6-yloxy}pyridin-3-yl)-4-tri-fluoromethylbenzamide hydrobromide]
248.3 to 252.3	Br.CC(C)Oc1ccc(CN2CCN(C(=O)c3cc4ccc(Oc5ccc(N(C)C(=O)c6ccc(C(F)(F)F)cc6Cl)cn5)cc4n3C)CC2)cc1 [Example 451, 2-Chloro-N-(6-{2-[4-(4-isopropoxybenzyl)piperazine-1-carbonyl]-1-methyl-1H-indol-6-yloxy}pyridin-3-yl)-N-methyl-4-trifluoromethyl-benzamide hydrobromide]
